Measurements published in ChEMBL document CHEMBL2073981, “Differential regulation of multidrug resistance-associated protein 2 (MRP2) and cytochromes P450 2B1/2 and 3A1/2 in phenobarbital-treated hepatocytes” (Biochem Pharmacol, 2002).

What was measured:
[1] = biological target: T1, ATP-binding cassette sub-family C member 2 (Rattus norvegicus, UniProt Q63120); assay: TP_TRANSPORTER: Northern blot in vivo SD rat, liver; type: functional, organism-based, Sprague-Dawley
[2] = biological target: T1, ATP-binding cassette sub-family C member 2; assay: (§1) TP_TRANSPORTER: Western in vitro, primary hepatocytes; type: functional, cell-based, Hepatocyte
[3] = biological target: T2, ATP-binding cassette sub-family C member 2 (Homo sapiens, UniProt Q92887); assay: as §1; type: functional, cell-based, Hepatocyte
T2 sequence (Q92887 whole entry): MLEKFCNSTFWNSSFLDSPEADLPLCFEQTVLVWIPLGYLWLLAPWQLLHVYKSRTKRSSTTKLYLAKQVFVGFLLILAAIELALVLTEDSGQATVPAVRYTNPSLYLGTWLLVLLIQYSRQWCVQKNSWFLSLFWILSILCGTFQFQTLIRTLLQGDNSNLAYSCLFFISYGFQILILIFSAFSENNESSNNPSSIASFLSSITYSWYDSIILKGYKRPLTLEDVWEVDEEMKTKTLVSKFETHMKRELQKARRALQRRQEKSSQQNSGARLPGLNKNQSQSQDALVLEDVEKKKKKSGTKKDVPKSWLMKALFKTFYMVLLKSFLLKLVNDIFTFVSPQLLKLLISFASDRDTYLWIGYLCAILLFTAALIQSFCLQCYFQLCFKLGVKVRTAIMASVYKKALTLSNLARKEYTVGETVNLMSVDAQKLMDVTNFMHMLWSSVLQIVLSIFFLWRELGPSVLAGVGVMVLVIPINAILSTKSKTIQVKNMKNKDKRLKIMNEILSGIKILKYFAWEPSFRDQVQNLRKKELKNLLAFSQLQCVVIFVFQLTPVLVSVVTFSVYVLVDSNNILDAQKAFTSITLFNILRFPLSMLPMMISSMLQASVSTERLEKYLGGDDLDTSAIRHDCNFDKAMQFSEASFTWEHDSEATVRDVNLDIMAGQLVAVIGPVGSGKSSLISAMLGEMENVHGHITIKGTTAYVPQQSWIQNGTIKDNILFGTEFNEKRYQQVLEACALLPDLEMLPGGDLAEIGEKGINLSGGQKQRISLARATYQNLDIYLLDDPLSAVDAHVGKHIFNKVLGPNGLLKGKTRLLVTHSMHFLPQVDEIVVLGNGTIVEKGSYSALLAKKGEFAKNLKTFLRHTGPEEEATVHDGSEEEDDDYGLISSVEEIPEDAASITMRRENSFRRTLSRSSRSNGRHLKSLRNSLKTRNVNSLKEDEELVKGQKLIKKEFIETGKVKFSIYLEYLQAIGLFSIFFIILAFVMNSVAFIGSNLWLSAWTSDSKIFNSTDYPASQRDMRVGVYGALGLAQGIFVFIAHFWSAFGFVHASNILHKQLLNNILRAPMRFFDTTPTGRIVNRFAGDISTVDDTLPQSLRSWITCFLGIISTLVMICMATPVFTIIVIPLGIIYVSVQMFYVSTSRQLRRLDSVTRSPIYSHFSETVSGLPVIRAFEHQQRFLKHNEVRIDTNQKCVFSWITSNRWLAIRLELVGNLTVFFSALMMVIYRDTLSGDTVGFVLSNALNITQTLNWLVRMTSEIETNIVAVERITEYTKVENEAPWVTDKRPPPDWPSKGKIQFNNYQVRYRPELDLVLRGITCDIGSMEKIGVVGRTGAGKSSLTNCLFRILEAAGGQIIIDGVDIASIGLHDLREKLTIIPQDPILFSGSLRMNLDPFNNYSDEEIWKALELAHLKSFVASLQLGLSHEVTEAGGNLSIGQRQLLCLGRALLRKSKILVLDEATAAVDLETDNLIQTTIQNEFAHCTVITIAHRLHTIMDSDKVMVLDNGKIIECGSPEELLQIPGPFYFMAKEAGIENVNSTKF

[4] = biological target: T1, ATP-binding cassette sub-family C member 2; assay: (§2) TP_TRANSPORTER: Northern blot in vitro, primary hepatocytes; type: functional, cell-based, Hepatocyte
[5] = biological target: T2, ATP-binding cassette sub-family C member 2; assay: as §2; type: functional, cell-based, Hepatocyte
[6] = biological target: Multidrug resistance protein 1a (Rattus norvegicus) (UniProt Q6PSM0); assay: as §2; type: functional, cell-based; settings: Hepatocyte
Multidrug resistance protein 1a (Rattus norvegicus), sequence (Q6PSM0 as listed by the source): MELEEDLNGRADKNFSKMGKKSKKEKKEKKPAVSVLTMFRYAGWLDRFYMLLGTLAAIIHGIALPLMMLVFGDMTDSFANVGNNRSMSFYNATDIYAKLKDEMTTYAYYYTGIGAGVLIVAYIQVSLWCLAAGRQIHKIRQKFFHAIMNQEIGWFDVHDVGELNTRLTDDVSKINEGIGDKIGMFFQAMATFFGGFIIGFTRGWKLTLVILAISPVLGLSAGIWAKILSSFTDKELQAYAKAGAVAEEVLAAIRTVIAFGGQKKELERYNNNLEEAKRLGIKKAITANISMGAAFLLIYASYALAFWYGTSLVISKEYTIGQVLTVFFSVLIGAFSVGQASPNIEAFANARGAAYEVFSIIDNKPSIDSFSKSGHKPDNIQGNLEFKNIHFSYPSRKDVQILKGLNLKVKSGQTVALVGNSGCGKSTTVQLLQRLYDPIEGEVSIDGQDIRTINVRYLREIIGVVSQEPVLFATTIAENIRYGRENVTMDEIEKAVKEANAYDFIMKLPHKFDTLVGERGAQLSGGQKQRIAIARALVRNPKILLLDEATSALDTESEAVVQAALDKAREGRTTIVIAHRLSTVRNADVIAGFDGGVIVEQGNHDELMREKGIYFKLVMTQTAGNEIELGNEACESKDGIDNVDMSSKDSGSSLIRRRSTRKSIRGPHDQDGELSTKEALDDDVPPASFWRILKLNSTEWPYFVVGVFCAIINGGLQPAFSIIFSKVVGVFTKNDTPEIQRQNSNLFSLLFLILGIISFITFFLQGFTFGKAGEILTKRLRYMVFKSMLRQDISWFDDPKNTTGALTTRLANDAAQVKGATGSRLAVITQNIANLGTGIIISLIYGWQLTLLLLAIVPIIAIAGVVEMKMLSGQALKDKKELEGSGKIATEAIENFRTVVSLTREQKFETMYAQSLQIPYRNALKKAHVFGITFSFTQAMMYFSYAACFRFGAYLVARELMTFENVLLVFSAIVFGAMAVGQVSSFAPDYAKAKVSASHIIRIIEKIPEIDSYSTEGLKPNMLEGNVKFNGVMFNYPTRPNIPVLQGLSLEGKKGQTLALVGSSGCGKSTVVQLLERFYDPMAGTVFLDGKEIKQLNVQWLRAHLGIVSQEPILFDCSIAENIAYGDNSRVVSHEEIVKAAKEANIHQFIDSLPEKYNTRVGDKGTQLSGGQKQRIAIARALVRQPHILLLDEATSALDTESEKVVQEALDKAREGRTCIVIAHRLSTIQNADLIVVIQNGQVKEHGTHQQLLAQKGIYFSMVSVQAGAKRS

T1 sequence (Q63120 whole entry): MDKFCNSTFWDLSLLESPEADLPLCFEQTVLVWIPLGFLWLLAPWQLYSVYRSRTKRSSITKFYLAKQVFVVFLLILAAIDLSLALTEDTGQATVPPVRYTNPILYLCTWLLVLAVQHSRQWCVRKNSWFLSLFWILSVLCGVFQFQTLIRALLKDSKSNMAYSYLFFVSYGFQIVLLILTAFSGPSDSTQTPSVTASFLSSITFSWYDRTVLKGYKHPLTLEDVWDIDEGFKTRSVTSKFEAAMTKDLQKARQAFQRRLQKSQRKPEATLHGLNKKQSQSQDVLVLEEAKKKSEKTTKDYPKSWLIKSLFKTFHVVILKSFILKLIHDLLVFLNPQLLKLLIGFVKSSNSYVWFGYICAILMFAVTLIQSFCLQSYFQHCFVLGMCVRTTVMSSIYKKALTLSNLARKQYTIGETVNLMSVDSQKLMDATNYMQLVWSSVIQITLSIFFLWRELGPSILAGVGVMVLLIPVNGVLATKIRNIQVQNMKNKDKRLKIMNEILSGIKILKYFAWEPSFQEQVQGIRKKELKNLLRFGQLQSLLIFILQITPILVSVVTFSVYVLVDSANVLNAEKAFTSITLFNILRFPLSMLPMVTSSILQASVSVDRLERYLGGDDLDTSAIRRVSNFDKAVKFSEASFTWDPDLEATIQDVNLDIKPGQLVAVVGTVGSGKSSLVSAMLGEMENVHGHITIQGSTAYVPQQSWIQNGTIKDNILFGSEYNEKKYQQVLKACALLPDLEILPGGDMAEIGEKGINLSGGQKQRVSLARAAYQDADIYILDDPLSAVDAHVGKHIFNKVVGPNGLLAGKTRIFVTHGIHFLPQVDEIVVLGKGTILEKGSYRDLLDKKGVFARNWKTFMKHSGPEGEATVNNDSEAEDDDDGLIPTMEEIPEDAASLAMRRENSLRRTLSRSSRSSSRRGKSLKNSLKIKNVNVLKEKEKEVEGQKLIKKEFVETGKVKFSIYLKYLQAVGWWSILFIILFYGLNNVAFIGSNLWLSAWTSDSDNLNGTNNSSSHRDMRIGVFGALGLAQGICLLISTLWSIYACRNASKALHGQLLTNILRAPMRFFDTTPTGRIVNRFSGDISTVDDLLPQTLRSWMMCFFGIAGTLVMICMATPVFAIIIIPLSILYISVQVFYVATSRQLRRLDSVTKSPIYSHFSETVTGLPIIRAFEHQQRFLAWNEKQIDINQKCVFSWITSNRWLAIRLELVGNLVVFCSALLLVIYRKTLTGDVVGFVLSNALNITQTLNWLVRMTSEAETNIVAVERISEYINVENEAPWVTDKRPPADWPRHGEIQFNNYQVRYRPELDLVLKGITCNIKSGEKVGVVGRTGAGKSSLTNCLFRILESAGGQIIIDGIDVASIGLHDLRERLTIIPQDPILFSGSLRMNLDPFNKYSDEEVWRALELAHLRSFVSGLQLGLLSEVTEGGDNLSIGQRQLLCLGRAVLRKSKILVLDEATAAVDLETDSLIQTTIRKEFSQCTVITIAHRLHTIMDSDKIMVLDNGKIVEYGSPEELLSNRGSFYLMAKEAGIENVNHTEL

How did the Activity [1] turn out when CCC1(c2ccccc2)C(=O)NC(=O)NC1=O [PHENOBARBITAL] was run?
Its Activity is “is not an inducer [-]”.

And the Activity [2]?
The Activity was “inducer [+]”.

And the Activity [3]?
The Activity was “inducer [+]”.

What about the Activity [4] of the same molecule?
The Activity was “inducer [+]”.

And the Activity [5]?
Its Activity is “inducer [+]”.

What about the Activity [6] of the same molecule?
Its Activity is “is not an inducer [-]”.
